For experiment [1], the system named is C. glutomicum strain derived from ATCC 13032 by evolutionary engineering. The experiment can be described thus: Metabolic activity after NH4-oAB and Na-oAB addition, batch cultivation in 1 L bioreactors (Example 2). The experiment is classed as cell-based, Corynebacterium glutomicum. The conditions noted are these: 40 mL of 500 g/L oAB stock solution added at 7 h and 24 h; FIG. 2. On the procedure: Both bioreactors: addition of 36 g/L glucose (added as stock solution) after 7.5 h and 24.5 h to prevent a glucose limitation.
A C. glutomicum strain derived from ATCC 13032 was used to compare the metabolic activity after NH4-oAB and Na-oAB addition during the cultivation. This strain was derived from Corynebacterium glutomicum ATCC 13032 by evolutionary engineering in order to increase its resistance against oAB. It was not further genetically modified. Thus it was not capable of oAB-production.

For another experiment, the system named is C. glutomicum ATCC 13032. The experiment can be described thus: Metabolic activity after NH4-oAB and Na-oAB addition, batch cultivation in 1 L bioreactors (Example 3, FIG. 3). The experiment is classed as cell-based. Particulars: for biomass accumulation after addition: 40 mL of 500 g/L oAB stock solution added after 6.4 h and 23.6 h, FIG. 3. An excerpt: From this it follows that the toxicity of oAB on C. glutomicum ATCC 13032 in presence of high sodium concentrations is reduced as compared to the toxicity in presence of high ammonium concentrations.

The subject of experiment [2] is modified C. glutamicum production strain. The conditions noted are these: for decrease of OTR signal after addition: 292 mmol salt (70 mL stock solution) added after 64 h, Na-oAB added before (4 x 20 mL of 500 g/L); for final dry weight concentration: after a cultivation time of 91 hours, salt added after 64 h in the presence of oAB.
In experiment [3] the test system is modified C. glutaomicum production strain. The experiment can be described thus: Evaluation of the maximum tolerable oAB concentration, batch cultivation in 1 L bioreactor (Example 1). In kind it is cell-based, Corynebacterium glutaomicum. Here is the method: FIG. 1: Evaluation of the maximum tolerable oAB concentration during batch cultivation in a 1 L lab-scale bioreactor with a modified C. glutaomicum production strain.
The maximum tolerable oAB concentration in the presence of sodium ions in the medium was tested with a modified C. glutaomicum production strain. This strain was derived from Corynebacterium glutaomicum ATCC 13032 by evolutionary engineering in order to increase its resistance against oAB. This strain was then genetically modified to make it capable of oAB-production and comprised the following modifications. The incorporated modifications have the effect of reduced expression of the trpD gene, encoding anthranilate phosphoribosyl transferase, knock out of gene ppc, encoding PEP Carboxylase, constitutive overexpression of heterologous aroG^D146N and trpEG^540F genes from E. coli, encoding feedback resistant DAHP synthase and anthranilate synthase, respectively, constitutive overexpression of the gene aroL from E. coli, encoding shikimate kinase.
Glucose was added as stock solution after 40 h, 48 h, 63 h, 65 and 71.5 h to prevent a glucose limitation.

This note sets out measurements from patent publication US20200263213A1, “METHODS FOR INCREASING THE TOLERANCE OF MICROBIAL CELLS TOWARDS ANTHRANILIC ACID BY LIMITING THE AMOUNT OF AMMONIA IN THE CULTURE MEDIUM” (priority 2017, published 2020).

A value given as a limit tells only on which side of the number the result lay.

Take `N.Nc1ccccc1C(=O)O` [NH4-oAB]: in experiment [1], the “OTR signal after addition” value was “constant OTR signal” and the “biomass concentration after addition” value is given as “reduced biomass accumulation”. In the experiment with C. glutomicum ATCC 13032, the “biomass accumulation after addition” value is reported as “growth inhibition after 24 h”. Also, the “o-aminobenzoate concentration at which cell growth (dry weight) stops” value in the experiment on C. glutomicum ATCC 13032 (according to FIG. 3) was more than 50 g/L. For the same molecule, the “o-aminobenzoate concentration at which the metabolic activity of bacterial cells (OTR) is limited” value in the experiment on C. glutomicum ATCC 13032 (according to FIG. 3, concentration not including the mass of the cation) is on record as “more than 25 g/L”.

Consider `Cl.N` [NH4Cl], for which, in experiment [2], the “decrease of OTR signal after addition” value is “about 20%” and the “final dry weight concentration” value is recorded as 6.8 g/L.

In the case of `Nc1ccccc1C(=O)[O-].[Na+]` [Na-oAB], in experiment [1], the “OTR signal after addition” value is “continued to increase” and the “biomass concentration after addition” value is listed as “continued to increase”. Besides, the “biomass accumulation after addition” value in the experiment with C. glutomicum ATCC 13032 is “biomass accumulation continued”.

In the case of `[Cl-].[Na+]` [NaCl], in experiment [2], the “decrease of OTR signal after addition” value is recorded as “no effect” and the “final dry weight concentration” value stood at 7.8 g/L.

`Nc1ccccc1C(=O)O` [oAB, 2-aminobenzoic acid]: the “oAB concentration at which an increase in biomass concentration was still observed” value in experiment [3] (oAB added stepwise as sodium salt (dissolved with NaOH at pH 7), pH 7 controlled with NH4OH, 30° C.) was 80 g/L. Also, the “oAB concentration resulting in a decrease of the metabolic activity (declining OTR signal) and no further increase in biomass” value in experiment [3] (oAB increased from 80 g/L after 71 h, added as sodium salt (dissolved with NaOH at pH 7)) is given as 100 g/L.
